Data: patent US9981989B2, “Ataxia telengiectasia and Rad3-related (ATR) protein kinase inhibitors” (Atrin Pharmaceuticals LLC, priority 2014, dated 2018)

Key:
Jurkat cells = assay: Phenotypical evaluation of ATR inhibition: S-phase arrest of Jurkat cells under aphidicolin replication stress, flow cytometry; type: cell-based, human; settings: 0.2 μM aphidicolin, 24 hours
Description: It is known that inhibition of ATR in cells under replicative stress stalls DNA replication, which prevents cells from progressing through S-phase, leading to an accumulation of cells in this cell cycle phase (Kevin D. Smith, et al., Tim-Tipin dysfunction creates an indispensable reliance on the ATR-Chk1 pathway for continued DNA synthesis, J. Cell Biol. 2009, 187, 15-23). In the present experiment Jurkat cells were treated with 0.2 μM aphidicolin to induce replication stress in the presence of test compounds, at concentrations ranging from 10 μM to 0.1 μM, for 24 hours. Cells were fixed and cell-cycle profiles examined by flow cytometry as in Smith, J. Cell Bio. 2009. Test compounds were considered active if stalling of the cells in S-phase was observed.

Chk2 phosphorylation = assay: ATR kinase selectivity: Chk2 phosphorylation in HCT119 WT BCL/XL-GFP cells after 5 Gy irradiation, western blot; type: cell-based, human; settings: 5-0.01 μM compound, stimulated by 5 Gy irradiation, pChk2 (T68) (FIG. 4C)
From the text: (§1) Chk1 phosphorylation, ATR's primary downstream target, is used as a read-out for ATR activity (Liu Q. et al., Chk1 is an essential kinase that is regulated by Atr and required for the G(2)/M DNA damage checkpoint, Genes Dev. 2000, Jun. 15, 14(12), 1448-1459; and (Jia Li and David F. Stern, Regulation of CHK2 by DNA-dependent Protein Kinase, J Biol. Chem. 2005, 280, 12041-12050). Chk2 phosphorylation (stimulated by 5 Gy irradiation), is a marker of ATM and DNA-PKcs activity, which together with ATR are closely related DNA-damage responsive PIKK family kinases (Shuhei Matsuoka et al., Ataxia telangiectasia-mutated phosphorylates Chk2 in vivo and in vitro, Proceedings of the National Academy of Sciences of the USA, 2000, 97(19), 10389-10394; Li J and Stern D F, Regulation of CHK2 by DNA-dependent protein kinase. The Journal of biological chemistry, 2005, 280, 12041-12050).
HCT119 WT BCL/XL-GFP cells were incubated with decreasing concentrations of test compounds (5-0.01 μM) alone for 30 minutes followed by 5 Gy irradiation and cell lysis 20 minutes post irradiation. Cell lysis and western blotting were performed as in Gilad, Cancer Res, 2010, using the following antibodies as per manufacturers' instructions: pChk2 (T68) (Cell Signaling 2661S), GAPDH (loading control, Chemicon MAB374), and MCM3 (loading control, Santa Cruz sc-9850).

ATR = target: T1, ATR (Homo sapiens, UniProt Q13535); assay: ATR cellular kinase activity: Chk1 and H2AX phosphorylation in HCT119 WT BCL/XL-GFP cells with aphidicolin, western blot; type: cell-based; settings: 5 μM aphidicolin, 4 hours
T1 construct: endogenous in cells; host or cells: HCT119 WT BCL/XL-GFP cells
From the text: as §1
HCT119 WT BCL/XL-GFP cells were incubated with decreasing concentrations of test compounds (10-0.003 μM) and 5 μM aphidicolin for 4 hours prior to lysis. Cell lysis and western blotting were performed as in Gilad, Cancer Res, 2010, using the following antibodies as per manufacturers' instructions: pCHK1 (Ser345) (Cell signaling 133D3), pH2AX (S139) (Millipore 05636), GAPDH (loading control, Chemicon MAB374), and MCM3 (loading control, Santa Cruz sc-9850). Test compounds were considered active if significant inhibition of Chk1 phosphorylation was observed.

[1] = 1.25 μM compound, Jurkat cells (FIGS. 3A, 3B)

T1 sequence (Q13535 whole entry): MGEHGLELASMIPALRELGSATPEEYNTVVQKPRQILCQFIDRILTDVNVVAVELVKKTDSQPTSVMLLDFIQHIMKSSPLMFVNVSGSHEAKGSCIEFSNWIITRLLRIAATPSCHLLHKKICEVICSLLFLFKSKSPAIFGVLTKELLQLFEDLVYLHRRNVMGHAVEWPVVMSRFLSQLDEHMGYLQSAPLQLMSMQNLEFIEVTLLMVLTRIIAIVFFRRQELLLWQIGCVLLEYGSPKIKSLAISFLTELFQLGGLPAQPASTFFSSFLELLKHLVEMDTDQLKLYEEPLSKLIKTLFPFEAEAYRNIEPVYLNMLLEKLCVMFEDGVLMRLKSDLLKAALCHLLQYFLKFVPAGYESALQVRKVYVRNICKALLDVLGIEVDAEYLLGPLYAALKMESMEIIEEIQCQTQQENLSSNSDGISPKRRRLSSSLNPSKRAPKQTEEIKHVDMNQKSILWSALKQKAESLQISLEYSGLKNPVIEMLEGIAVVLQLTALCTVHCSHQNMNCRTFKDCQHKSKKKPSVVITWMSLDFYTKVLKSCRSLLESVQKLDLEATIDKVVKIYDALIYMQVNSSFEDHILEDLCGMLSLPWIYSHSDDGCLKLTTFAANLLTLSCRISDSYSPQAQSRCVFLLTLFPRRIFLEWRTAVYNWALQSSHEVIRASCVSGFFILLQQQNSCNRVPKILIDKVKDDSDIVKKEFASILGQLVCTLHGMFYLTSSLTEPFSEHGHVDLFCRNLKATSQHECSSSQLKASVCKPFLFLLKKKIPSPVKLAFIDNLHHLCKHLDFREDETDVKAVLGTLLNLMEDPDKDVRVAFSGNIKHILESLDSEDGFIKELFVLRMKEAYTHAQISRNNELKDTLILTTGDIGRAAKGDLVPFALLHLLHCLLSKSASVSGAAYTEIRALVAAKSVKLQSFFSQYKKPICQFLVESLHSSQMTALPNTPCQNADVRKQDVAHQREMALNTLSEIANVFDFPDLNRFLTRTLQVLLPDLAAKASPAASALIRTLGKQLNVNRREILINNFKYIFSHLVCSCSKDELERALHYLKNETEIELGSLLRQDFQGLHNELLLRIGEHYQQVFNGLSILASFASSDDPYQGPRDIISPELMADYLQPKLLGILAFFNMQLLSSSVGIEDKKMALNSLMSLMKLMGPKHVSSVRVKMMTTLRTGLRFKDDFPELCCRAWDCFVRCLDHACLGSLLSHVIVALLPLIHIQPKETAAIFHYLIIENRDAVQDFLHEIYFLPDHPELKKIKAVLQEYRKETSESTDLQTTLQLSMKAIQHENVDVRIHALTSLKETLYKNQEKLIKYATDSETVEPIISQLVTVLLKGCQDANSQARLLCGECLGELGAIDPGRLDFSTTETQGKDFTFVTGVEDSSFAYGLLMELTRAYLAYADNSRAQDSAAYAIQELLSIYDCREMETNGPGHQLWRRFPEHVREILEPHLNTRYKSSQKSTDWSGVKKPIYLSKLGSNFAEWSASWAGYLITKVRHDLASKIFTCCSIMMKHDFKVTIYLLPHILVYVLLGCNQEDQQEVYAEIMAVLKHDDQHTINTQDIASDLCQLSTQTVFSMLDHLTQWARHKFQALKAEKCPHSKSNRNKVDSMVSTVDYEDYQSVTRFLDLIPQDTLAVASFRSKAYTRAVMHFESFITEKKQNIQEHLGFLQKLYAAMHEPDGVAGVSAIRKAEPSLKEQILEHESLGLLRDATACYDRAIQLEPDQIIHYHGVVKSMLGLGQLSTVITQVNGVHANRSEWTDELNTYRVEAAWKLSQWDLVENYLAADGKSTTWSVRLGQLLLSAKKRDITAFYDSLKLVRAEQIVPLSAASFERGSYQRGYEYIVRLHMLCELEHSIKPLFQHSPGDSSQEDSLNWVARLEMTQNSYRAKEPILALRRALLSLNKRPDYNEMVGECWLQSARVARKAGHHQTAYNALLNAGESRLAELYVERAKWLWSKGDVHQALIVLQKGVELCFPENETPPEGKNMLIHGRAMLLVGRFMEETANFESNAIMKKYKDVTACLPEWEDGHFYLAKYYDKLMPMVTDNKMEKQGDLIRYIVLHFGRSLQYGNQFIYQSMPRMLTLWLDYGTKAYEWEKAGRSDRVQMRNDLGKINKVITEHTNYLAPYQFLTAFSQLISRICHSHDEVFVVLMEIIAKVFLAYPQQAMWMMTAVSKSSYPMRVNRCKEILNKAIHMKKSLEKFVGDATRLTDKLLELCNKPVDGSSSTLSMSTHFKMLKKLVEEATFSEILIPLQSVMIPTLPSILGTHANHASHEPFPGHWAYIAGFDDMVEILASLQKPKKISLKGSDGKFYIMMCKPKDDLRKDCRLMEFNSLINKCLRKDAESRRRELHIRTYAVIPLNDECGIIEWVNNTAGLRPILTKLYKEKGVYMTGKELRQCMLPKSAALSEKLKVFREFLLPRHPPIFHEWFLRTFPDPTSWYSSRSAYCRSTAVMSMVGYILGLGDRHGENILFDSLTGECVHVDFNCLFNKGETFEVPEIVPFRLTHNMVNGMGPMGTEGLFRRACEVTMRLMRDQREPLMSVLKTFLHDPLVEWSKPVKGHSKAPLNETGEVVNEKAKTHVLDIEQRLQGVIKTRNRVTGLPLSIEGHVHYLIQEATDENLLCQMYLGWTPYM
T1 sequence (Q8WXE1 whole entry partner): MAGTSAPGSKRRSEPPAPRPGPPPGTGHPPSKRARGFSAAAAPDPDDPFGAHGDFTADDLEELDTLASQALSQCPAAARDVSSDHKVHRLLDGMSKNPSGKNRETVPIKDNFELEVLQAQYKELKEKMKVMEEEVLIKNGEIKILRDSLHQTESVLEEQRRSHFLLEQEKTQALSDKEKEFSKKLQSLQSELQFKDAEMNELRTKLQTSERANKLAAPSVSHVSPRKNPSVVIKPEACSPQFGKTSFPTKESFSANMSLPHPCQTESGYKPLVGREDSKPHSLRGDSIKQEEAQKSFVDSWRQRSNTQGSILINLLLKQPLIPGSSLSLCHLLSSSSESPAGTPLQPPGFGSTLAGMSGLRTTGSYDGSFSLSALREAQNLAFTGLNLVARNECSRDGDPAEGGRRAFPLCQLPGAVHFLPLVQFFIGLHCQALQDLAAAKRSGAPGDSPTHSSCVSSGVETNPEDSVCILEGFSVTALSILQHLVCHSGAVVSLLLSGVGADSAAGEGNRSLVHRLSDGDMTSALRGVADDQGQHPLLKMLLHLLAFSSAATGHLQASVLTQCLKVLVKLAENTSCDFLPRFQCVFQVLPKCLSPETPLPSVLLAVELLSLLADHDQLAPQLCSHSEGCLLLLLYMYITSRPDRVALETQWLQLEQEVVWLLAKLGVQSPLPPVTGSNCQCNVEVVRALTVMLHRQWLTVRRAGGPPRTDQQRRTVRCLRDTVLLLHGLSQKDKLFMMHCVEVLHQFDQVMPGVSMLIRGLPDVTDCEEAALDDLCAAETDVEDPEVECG

concentration at which Chk1 phosphorylation is completely inhibited (ATR; pCHK1 (Ser345) (FIG. 4B)) [μLM] | lowest dose able to limit phosphorylation of Chk1 (ATR; pCHK1 (Ser345) (FIG. 4B)) [nM] | H2AX phosphorylation (DNA double strand breaks) (ATR; pH2AX (S139) (FIG. 4B)) | SMILES | inhibition of cell cycle progression by accumulation of cells in S-phase (Jurkat cells; [1]) | inhibition of cell cycle progression by accumulation of cells in S-phase (Jurkat cells; 2.5 μM compound, Jurkat cells (FIG. 2)) | inhibition of cell cycle progression by accumulation of cells in S-phase (Jurkat cells; 10 μM compound, Jurkat cells (FIG. 1)) | levels of Chk2 phosphorylation (Chk2 phosphorylation)
– | – | – | CNS(=O)(=O)c1ccc(-c2cnc(N)c(C(=O)Nc3ccccc3OCCOCCOCCO)n2)cc1 [IM11, 3-amino-N-(2-(2-(2-(2-hydroxyethoxy)ethoxy)ethoxy)phenyl)-6-(4-(N-methylsulfamoyl)phenyl)pyrazine-2-carboxamide] | inactive | – | – | –
– | – | – | CN1CCOCCOCCOc2ccccc2NC(=O)c2nc(cnc2N)-c2ccc(cc2)S1(=O)=O [P(1)] | significant inhibition of cell cycle progression | significant inhibition of cell cycle progression | significant inhibition of cell cycle progression | –
≥ 1 | 30 | increased H2AX phosphorylation | CNCc1cccc2c1OCCOCCOCCN(C)S(=O)(=O)c1ccc(cc1)-c1cnc(N)c(n1)C(=O)N2 [P(4)] | – | – | – | did not affect
